Measured values: US11939320B2, “Modulators of the integrated stress pathway” (Calico Life Sciences LLC, priority 2017, dated 2024)

The compounds below were run on HEK293T cells carrying the ATF4 luciferase reporter (assay: ATF4-Luc assay (in vitro model of VWMD)). Conditions: Homo sapiens, HEK-293T; HEK293T cells with ATF4 5'-UTR firefly luciferase reporter; 1 μg/mL tunicamycin; 7 hours; One Glo luminescence.
Format: cell-based
Procedure: In order to test exemplary compounds of the invention in a cellular context, a stable VWMD cell line was first constructed. The ATF4 reporter was prepared by fusing the human full-length ATF4 5′-UTR (NCBI Accession No. BC022088.2) in front of the firefly luciferase (FLuc) coding sequence lacking the initiator methionine as described in Sidrauski et al (eLife 2013). The construct was used to produce recombinant retroviruses using standard methods and the resulting viral supernatant was used to transduce HEK293T cells, which were then subsequently selected with puromycin to generate a stable cell line.
HEK293T cells carrying the ATF4 luciferase reporter were plated on polylysine coated 384-well plates (Greiner Bio-one) at 30,000 cells per well. Cells were treated the next day with 1 μg/mL tunicamycin and 200 nM of a compound of Formula (I) for 7 hours. Luminescence was measured using One Glo (Promega) as specified by the manufacturer. Cells were maintained in DMEM with L-glutamine supplemented with 10% heat-inactivated FBS (Gibco) and Antibiotic-Antimycotic solution (Gibco).
Table 2 below summarizes the EC50 data obtained using the ATF4-Luc assay for exemplary compounds of the invention.
For `O=C(COc1ccc(Cl)c(F)c1)N[C@H]1CC[C@H](C(=O)N2CCN(c3cccc(Cl)c3)C(=O)C2)CC1` [Compound 126, 2-(4-chloro-3-fluorophenoxy)-N-{(1r,4r)-4-[4-(3-chlorophenyl)-3-oxopiperazine-1-carbonyl]cyclohexyl}acetamide], the EC50 was 500 to 2000 nM.
`O=C(COc1ccc(Cl)c(F)c1)N[C@H]1CC[C@H](C(=O)N2CCN(c3ccc(Cl)cc3)CC2)CC1` [Compound 127, 2-(4-chloro-3-fluorophenoxy)-N-{(1r,4r)-4-[4-(4-chlorophenyl)piperazine-1-carbonyl]cyclohexyl}acetamide] was tested, and the EC50 was greater than 2000 nM.
For `O=C(COc1ccc(Cl)c(F)c1)N[C@H]1CC[C@H](C(=O)N2CCC(c3ccc(Cl)cc3)CC2)CC1` [Compound 128, 2-(4-chloro-3-fluorophenoxy)-N-{(1r,4r)-4-[4-(4-chlorophenyl)piperidine-1-carbonyl]cyclohexyl}acetamide], the EC50 was greater than 2000 nM.
Work on `O=C(COc1ccc(Cl)c(F)c1)N[C@H]1CC[C@H](C(=O)N2CC(c3ccc(Cl)cc3)C2)CC1` [Compound 129, 2-(4-chloro-3-fluorophenoxy)-N-{(1r,4r)-4-[3-(4-chlorophenyl)azetidine-1-carbonyl]cyclohexyl}acetamide] yielded an EC50 of less than 10 nM.
`O=C(COc1ccc(Cl)c(F)c1)N[C@H]1CC[C@H](C(=O)N2CC(O)(c3ccc(Cl)cc3)C2)CC1` [Compound 130, 2-(4-chloro-3-fluorophenoxy)-N-{(1r,4r)-4-[3-(4-chlorophenyl)-3-hydroxyazetidine-1-carbonyl]cyclohexyl}acetamide] showed an EC50 of 50 to 250 nM.
With `O=C(COc1ccc(Cl)c(F)c1)N[C@H]1CC[C@H](C(=O)N2CC(c3ccccc3)C2)CC1` [Compound 131, 2-(4-chloro-3-fluorophenoxy)-N-[(1r,4r)-4-(3-phenylazetidine-1-carbonyl)cyclohexyl]acetamide] the EC50 was 10 to 50 nM.
`O=C(COc1ccc(Cl)c(F)c1)N[C@H]1CC[C@H](C(=O)N2Cc3ccc(Cl)cc3C2)CC1` [Compound 132, N-[(1r,4r)-4-(5-chloro-1,3-dihydro-2H-isoindole-2-carbonyl)cyclohexyl]-2-(4-chloro-3-fluorophenoxy)acetamide] showed an EC50 of 10 to 50 nM.
`O=C(COc1ccc(Cl)c(F)c1)N[C@H]1CC[C@@H](C(=O)N2CC(c3ccc(Cl)cc3)C2)CC1` [Compound 133, 2-(4-chloro-3-fluorophenoxy)-N-{(1s,4s)-4-[3-(4-chlorophenyl)azetidine-1-carbonyl]cyclohexyl}acetamide] gave an EC50 greater than 2000 nM.
Compound `O=C(COc1ccc(Cl)c(F)c1)N[C@@H]1CC[C@@H](C(=O)N2CC(c3ccc(C(F)(F)F)cc3)C2)OC1` [Compound 134, 2-(4-chloro-3-fluorophenoxy)-N-[(3R,6S)-6-{3-[4-(trifluoromethyl)phenyl]azetidine-1-carbonyl}oxan-3-yl]acetamide] has an EC50 of less than 10 nM.
`O=C(COc1ccc(Cl)c(F)c1)N[C@@H]1CC[C@@H](C(=O)NCc2nc(C(F)(F)F)c[nH]2)OC1` [Compound 135, (2S,5R)-5-[2-(4-chloro-3-fluorophenoxy)acetamido]-N-{[4-(trifluoromethyl)-1H-imidazol-2-yl]methyl}oxane-2-carboxamide] gave an EC50 of 50 to 250 nM.
Compound `Cc1cc(CNC(=O)[C@@H]2CC[C@@H](NC(=O)COc3ccc(Cl)c(F)c3)CO2)n(C)n1` [Compound 136, (2S,5R)-5-[2-(4-chloro-3-fluorophenoxy)acetamido]-N-[(1,3-dimethyl-1H-pyrazol-5-yl)methyl]oxane-2-carboxamide] has an EC50 greater than 2000 nM.
`O=C(COc1ccc(Cl)c(F)c1)N[C@@H]1CC[C@@H](C(=O)NCCOc2ccc(Cl)cc2)OC1` [Compound 137, (2S,5R)-5-[2-(4-chloro-3-fluorophenoxy)acetamido]-N-[2-(4-chlorophenoxy)ethyl]oxane-2-carboxamide] gave an EC50 of 10 to 50 nM.
Work on `O=C(COc1ccc(Cl)c(F)c1)N[C@@H]1CC[C@@H](C(=O)NCc2cn3ccc(Cl)cc3n2)OC1` [Compound 138, (2S,5R)-5-[2-(4-chloro-3-fluorophenoxy)acetamido]-N-[(7-chloroimidazo[1,2-a]pyridin-2-yl)methyl]oxane-2-carboxamide] yielded an EC50 of 10 to 50 nM.
With `O=C(COc1ccc(Cl)c(F)c1)N[C@@H]1CC[C@@H](C(=O)NCc2cnc(C(F)(F)F)nc2)OC1` [Compound 139, (2S,5R)-5-[2-(4-chloro-3-fluorophenoxy)acetamido]-N-{[2-(trifluoromethyl)pyrimidin-5-yl]methyl}oxane-2-carboxamide] the EC50 was 250 to 500 nM.
`COc1ncc(CNC(=O)[C@@H]2CC[C@@H](NC(=O)COc3ccc(Cl)c(F)c3)CO2)cn1` [Compound 140, (2S,5R)-5-[2-(4-chloro-3-fluorophenoxy)acetamido]-N-[(2-methoxypyrimidin-5-yl)methyl]oxane-2-carboxamide] gave an EC50 greater than 2000 nM.
Work on `O=C(COc1ccc(Cl)c(F)c1)N[C@@H]1CC[C@@H](C(=O)NC2(c3ccc(Cl)cc3)CC2)OC1` [Compound 141, (2S,5R)-5-[2-(4-chloro-3-fluorophenoxy)acetamido]-N-[1-(4-chlorophenyl)cyclopropyl]oxane-2-carboxamide] yielded an EC50 greater than 2000 nM.
`O=C(COc1ccc(Cl)c(F)c1)N[C@@H]1CC[C@@H](C(=O)NCc2cc3cc(Cl)ccc3[nH]2)OC1` [Compound 142, (2S,5R)-5-[2-(4-chloro-3-fluorophenoxy)acetamido]-N-[(5-chloro-1H-indol-2-yl)methyl]oxane-2-carboxamide] was tested, and the EC50 was 50 to 250 nM.
With `O=C(COc1ccc(Cl)c(F)c1)N[C@@H]1CC[C@@H](C(=O)N2CCC(c3ccc(Cl)cc3)C2)OC1` (stereo partly drawn) [Compound 143, 2-(4-chloro-3-fluorophenoxy)-N-{(3R,6S)-6-[3-(4-chlorophenyl)pyrrolidine-1-carbonyl]oxan-3-yl}acetamide] the EC50 was 500 to 2000 nM.
For `O=C(COc1ccc(Cl)c(F)c1)N[C@@H]1CC[C@@H](C(=O)N2CCn3c(nnc3C(F)(F)F)C2)OC1` [Compound 144, 2-(4-chloro-3-fluorophenoxy)-N-{(3R,6S)-6-[3-(trifluoromethyl)-5,6-dihydro[1,2,4]triazolo[4,3-a]pyrazine-7(8H)-carbonyl]oxan-3-yl}acetamide], the EC50 was greater than 2000 nM.
`O=C(COc1ccc(Cl)c(F)c1)N[C@@H]1CC[C@@H](C(=O)Nc2nccc(-c3ccc(Cl)c(F)c3)n2)OC1` [Compound 145, (2S,5R)-5-[2-(4-chloro-3-fluorophenoxy)acetamido]-N-[4-(4-chloro-3-fluorophenyl)pyrimidin-2-yl]oxane-2-carboxamide] showed an EC50 of 500 to 2000 nM.
Compound `O=C(COc1ccc(Cl)c(F)c1)N[C@@H]1CC[C@@H](C(=O)NCCc2ccc(Cl)cc2)OC1` [Compound 146, (2S,5R)-5-[2-(4-chloro-3-fluorophenoxy)acetamido]-N-[2-(4-chlorophenyl)ethyl]oxane-2-carboxamide] has an EC50 of 50 to 250 nM.
Work on `O=C(COc1ccc(C(F)(F)F)nc1)N[C@H]1CC[C@H](C(=O)NCc2nc3cc(Cl)ccc3[nH]2)CC1` [Compound 147, (1r,4r)-N-[(5-chloro-1H-benzimidazol-2-yl)methyl]-4-(2-{[6-(trifluoromethyl)pyridin-3-yl]oxy}acetamido)cyclohexane-1-carboxamide] yielded an EC50 greater than 2000 nM.
`O=C(COc1ccc2c(c1)OC(F)(F)O2)N[C@H]1CC[C@H](C(=O)NCc2nc3cc(Cl)ccc3[nH]2)CC1` [Compound 148, (1r,4r)-N-[(5-chloro-1H-benzimidazol-2-yl)methyl]-4-{2-[(2,2-difluoro-2H-1,3-benzodioxol-5-yl)oxy]acetamido}cyclohexane-1-carboxamide] gave an EC50 of 50 to 250 nM.
`O=C(COc1ccc(F)c(F)c1)N[C@H]1CC[C@H](C(=O)NCc2nc3cc(Cl)ccc3[nH]2)CC1` [Compound 149, (1r,4r)-N-[(5-chloro-1H-benzimidazol-2-yl)methyl]-4-[2-(3,4-difluorophenoxy)acetamido]cyclohexane-1-carboxamide] gave an EC50 of 50 to 250 nM.
`O=C(COc1ccc(Cl)c(F)c1)N[C@H]1CC[C@H](C(=O)NCc2nc3cc(Cl)ccc3[nH]2)CC1` [Compound 150, (1r,4r)-N-[(5-chloro-1H-benzimidazol-2-yl)methyl]-4-[2-(4-chloro-3-fluorophenoxy)acetamido]cyclohexane-1-carboxamide] gave an EC50 of 10 to 50 nM.
In the case of `O=C(COc1ccc(Cl)c(Cl)c1)N[C@H]1CC[C@H](C(=O)NCc2nc3cc(F)c(F)cc3[nH]2)CC1` [Compound 152, (1r,4r)-4-[2-(3,4-dichlorophenoxy)acetamido]-N-[(5,6-difluoro-1H-benzimidazol-2-yl)methyl]cyclohexane-1-carboxamide], the EC50 is reported as greater than 2000 nM.
`O=C(COc1ccc(Cl)c(F)c1)N[C@H]1CC[C@H](C(=O)NCc2nc3cc(F)c(F)cc3[nH]2)CC1` [Compound 153, (1r,4r)-4-[2-(4-chloro-3-fluorophenoxy)acetamido]-N-[(5,6-difluoro-1H-benzimidazol-2-yl)methyl]cyclohexane-1-carboxamide] was tested, and the EC50 was greater than 2000 nM.
Compound `O=C(COc1ccc(F)c(F)c1)N[C@H]1CC[C@H](C(=O)NCc2nc3cc(F)c(F)cc3[nH]2)CC1` [Compound 154, (1r,4r)-N-[(5,6-difluoro-1H-benzimidazol-2-yl)methyl]-4-[2-(3,4-difluorophenoxy)acetamido]cyclohexane-1-carboxamide] has an EC50 greater than 2000 nM.
In the case of `O=C(COc1ccc(Cl)cc1)N[C@H]1CC[C@H](C(=O)NCc2nc3cc(F)c(F)cc3[nH]2)CC1` [Compound 155, (1r,4r)-4-[2-(4-chlorophenoxy)acetamido]-N-[(5,6-difluoro-1H-benzimidazol-2-yl)methyl]cyclohexane-1-carboxamide], the EC50 is reported as 500 to 2000 nM.
